Converted amounts (≈) assume the structure as drawn. Where two headings read alike, the source gives them in different places.
Columns and labels:
K562/ADR = test: Leukemia cell growth inhibition, MTT, 72 h; assay type: cell-based; conditions: Homo sapiens
From the text: (§1) Leukemia cell lines: leukemia cell lines: K562/adr (drug-resistant, chronic myeloid leukemia, CML), NB4 (acute promyelocytic leukemia, AML), Kasumi-1 (acute myeloid leukemia M2 type, AML-M2), Jurkat (acute lymphoblastic leukemia, ALL), all of which were donated by Cancer Research Institute of Zhejiang University, China; and H9 (acute lymphoblastic leukemia, ALL), which was purchased from China Center for Type Culture Collection.
(§2) 6000 well-growing leukemia cells were obtained and inoculated into wells of a 96-well cell culture plate. […] On the next day, the 1-oxo/acylated-14-acylated oridonin derivatives of different concentrations were added and mixed uniformly. The plate was placed in a carbon dioxide cell incubator (5% CO2) at 37° C. and was incubated for 72 hours. Then the viable cell concentration was determined by MTT method.

Kasumi-1 = test: Leukemia cell growth inhibition, MTT, 72 h; assay type: cell-based; conditions: Homo sapiens
From the text: as §1, §2

H9 = test: Leukemia cell growth inhibition, MTT, 72 h; assay type: cell-based, human; conditions: for IC50 / IC90: Homo sapiens, H9, 72 h, MTT
From the text: as §1, §2

Jurkat = test: Leukemia cell growth inhibition, MTT, 72 h; assay type: cell-based, human; conditions: Homo sapiens, Jurkat; 72 h, MTT
From the text: as §1, §2

NB4 = test: Leukemia cell growth inhibition, MTT, 72 h; assay type: cell-based, human; conditions: for IC50 / IC90: Homo sapiens, NB-4, 72 h, MTT
From the text: as §1, §2

RPMI 8226 = test: Multiple myeloma cell growth inhibition, MTT, 72 h; assay type: cell-based; conditions: Homo sapiens
Experimental: Multiple myeloma cell lines: RPMI8226 (multiple myeloma), purchased from Fuxiang Bio-tech Co. Ltd., Shanghai, China.
as §2, with “well-growing” for “well-growing leukemia”, “and” for “and was”

CNE = test: Solid tumor cell growth inhibition, MTT, 72 h; assay type: cell-based, human; conditions: for IC50 / IC90: Homo sapiens, CNE, 72 h, MTT
Experimental: (§3) 6000 well-growing human solid tumor cells were obtained and inoculated into wells of a 96-well cell culture plate. The culture medium was DMEM High Glucose cell culture medium containing 10% fetal bovine serum. The plate was placed in a carbon dioxide cell incubator (5% CO2) at 37° C. and incubated for 24 hours. After added with 1-oxo/acylated-14-acylated oridonin derivatives of different concentration and mixed uniformly, the plate was placed in a carbon dioxide cell incubator (5% CO2) at 37° C. and incubated for 72 hours. Then the viable cell concentration was determined by MTT method.

Hela = test: Solid tumor cell growth inhibition, MTT, 72 h; assay type: cell-based, human; conditions: for IC50 / IC90: Homo sapiens, HeLa, 72 h, MTT
Experimental: as §3

Hep-2 = test: Solid tumor cell growth inhibition, MTT, 72 h; assay type: cell-based, human; conditions: for IC50 / IC90: Homo sapiens, HEp-2, 72 h, MTT
Experimental: as §3

MGC-803 = test: Solid tumor cell growth inhibition, MTT, 72 h; assay type: cell-based, human; conditions: for IC50 / IC90: Homo sapiens, MGC-803, 72 h, MTT
Experimental: as §3

A549 = test: Solid tumor cell growth inhibition, MTT, 72 h; assay type: cell-based; conditions: Homo sapiens
Experimental: as §3

Becap-37 = test: Solid tumor cell growth inhibition, MTT, 72 h; assay type: cell-based; conditions: Homo sapiens
Experimental: as §3

CaEs-17 = test: Solid tumor cell growth inhibition, MTT, 72 h; assay type: cell-based; conditions: Homo sapiens, CaEs17
Experimental: as §3

Hep G2 = test: Solid tumor cell growth inhibition, MTT, 72 h; assay type: cell-based; conditions: Homo sapiens, HepG2
Experimental: as §3

MG-63 = test: Solid tumor cell growth inhibition, MTT, 72 h; assay type: cell-based; conditions: Homo sapiens
Experimental: as §3

PANC-1 = test: Solid tumor cell growth inhibition, MTT, 72 h; assay type: cell-based; conditions: Homo sapiens
Experimental: as §3

PC-3 = test: Solid tumor cell growth inhibition, MTT, 72 h; assay type: cell-based; conditions: Homo sapiens
Experimental: as §3

RKO = test: Solid tumor cell growth inhibition, MTT, 72 h; assay type: cell-based; conditions: Homo sapiens
Experimental: as §3

SK-OV-3 = test: Solid tumor cell growth inhibition, MTT, 72 h; assay type: cell-based; conditions: Homo sapiens; for IC50: read-out: IC50 SK-OV-3; for IC90: read-out: IC90 SK-OV-3
Experimental: as §3

U87-MG = test: Solid tumor cell growth inhibition, MTT, 72 h; assay type: cell-based; conditions: Homo sapiens, U-87 MG
Experimental: as §3

C=C1C(=O)[C@]23[C@H](OC(=O)c4ccc(OC)c(OC)c4)[C@H]1CC[C@H]2[C@@]12CO[C@@]3(O)[C@@H](O)[C@@H]1C(C)(C)CCC2=O [BS-OR-015]
IC50 (K562/ADR): 0.51 µg/mL (≈ 0.969 µM) | IC90 (K562/ADR): 1.97 µg/mL (≈ 3.74 µM) | IC50 (Kasumi-1): 0.51 µg/mL (≈ 0.969 µM) | IC90 (Kasumi-1): 1.15 µg/mL (≈ 2.18 µM) | IC50 (H9): 0.45 µg/mL (≈ 0.855 µM) | IC90 (H9): 1.82 µg/mL (≈ 3.46 µM) | IC50 (Jurkat): 0.69 µg/mL (≈ 1.31 µM) | IC90 (Jurkat): 2.31 µg/mL (≈ 4.39 µM) | IC50 (NB4): 0.11 µg/mL (≈ 0.209 µM) | IC90 (NB4): 0.43 µg/mL (≈ 0.817 µM) | IC50 (RPMI 8226): 0.3 µg/mL (≈ 0.57 µM) | IC90 (RPMI 8226): 1.85 µg/mL (≈ 3.51 µM) | IC50 (CNE): 1.05 µg/mL (≈ 1.99 µM) | IC90 (CNE): 4.05 µg/mL (≈ 7.69 µM) | IC50 (Hela): 1.53 µg/mL (≈ 2.91 µM) | IC90 (Hela): 3.75 µg/mL (≈ 7.12 µM) | IC50 (Hep-2): 1.12 µg/mL (≈ 2.13 µM) | IC90 (Hep-2): 5.05 µg/mL (≈ 9.59 µM) | IC50 (MGC-803): 0.84 µg/mL (≈ 1.6 µM) | IC90 (MGC-803): 4.68 µg/mL (≈ 8.89 µM) | IC50 (A549): 2.38 µg/mL (≈ 4.52 µM) | IC90 (A549): 5.33 µg/mL (≈ 10.1 µM) | IC50 (Becap-37): 0.99 µg/mL (≈ 1.88 µM) | IC90 (Becap-37): 3.17 µg/mL (≈ 6.02 µM) | IC50 (CaEs-17): 0.95 µg/mL (≈ 1.8 µM) | IC90 (CaEs-17): 3.05 µg/mL (≈ 5.79 µM) | IC50 (Hep G2): 0.94 µg/mL (≈ 1.79 µM) | IC90 (Hep G2): 5.47 µg/mL (≈ 10.4 µM) | IC50 (MG-63): 0.4 µg/mL (≈ 0.76 µM) | IC90 (MG-63): 0.96 µg/mL (≈ 1.82 µM) | IC50 (PANC-1): 1.88 µg/mL (≈ 3.57 µM) | IC90 (PANC-1): 9.81 µg/mL (≈ 18.6 µM) | IC50 (PC-3): 1.66 µg/mL (≈ 3.15 µM) | IC90 (PC-3): 3.04 µg/mL (≈ 5.77 µM) | IC50 (RKO): 0.42 µg/mL (≈ 0.798 µM) | IC90 (RKO): 0.94 µg/mL (≈ 1.79 µM) | IC50 (SK-OV-3; SK-OV-3, 72 h, MTT): 1.66 µg/mL (≈ 3.15 µM) | IC90 (SK-OV-3; SK-OV-3, 72 h, MTT): 3.04 µg/mL (≈ 5.77 µM) | IC50 (U87-MG): 0.87 µg/mL (≈ 1.65 µM) | IC90 (U87-MG): 2.41 µg/mL (≈ 4.58 µM)

C=C1C(=O)[C@]23[C@H](OC(=O)c4ccc(C)cc4)[C@H]1CC[C@H]2[C@@]12CO[C@@]3(O)[C@@H](O)[C@@H]1C(C)(C)CCC2OC(C)=O (some centres unmarked) [BS-OR-090]
IC50 (K562/ADR): 0.36 µg/mL (≈ 0.686 µM) | IC90 (K562/ADR): 1.48 µg/mL (≈ 2.82 µM) | IC50 (Kasumi-1): 0.37 µg/mL (≈ 0.705 µM) | IC90 (Kasumi-1): 1.3 µg/mL (≈ 2.48 µM) | IC50 (H9): 0.06 µg/mL (≈ 0.114 µM) | IC90 (H9): 0.37 µg/mL (≈ 0.705 µM) | anti-H9 cell line activity increased (H9; as compared with oridonin): 22 fold | IC50 (Jurkat): 0.4 µg/mL (≈ 0.762 µM) | IC90 (Jurkat): 2.62 µg/mL (≈ 4.99 µM) | IC50 (NB4): 0.05 µg/mL (≈ 0.0953 µM) | IC90 (NB4): 0.94 µg/mL (≈ 1.79 µM) | anti-NB4 cell line activity increased (NB4; as compared with oridonin): 15 fold | IC50 (RPMI 8226): 0.2 µg/mL (≈ 0.381 µM) | IC90 (RPMI 8226): 1.61 µg/mL (≈ 3.07 µM) | IC50 (CNE): 0.98 µg/mL (≈ 1.87 µM) | IC90 (CNE): 4.59 µg/mL (≈ 8.75 µM) | anti-CNE activity increased (CNE; in comparison with oridonin): ~6 fold | IC50 (Hela): 0.96 µg/mL (≈ 1.83 µM) | IC90 (Hela): 3.67 µg/mL (≈ 7 µM) | anti-Hela activity increased (Hela; in comparison with oridonin): more than 5 fold | IC50 (Hep-2): 0.96 µg/mL (≈ 1.83 µM) | IC90 (Hep-2): 5.71 µg/mL (≈ 10.9 µM) | anti-Hep-2 activity increased (Hep-2; in comparison with oridonin): ~5 fold | IC50 (MGC-803): 0.52 µg/mL (≈ 0.991 µM) | IC90 (MGC-803): 6.3 µg/mL (≈ 12 µM) | anti-MGC-803 activity increased (MGC-803; in comparison with oridonin): ~10 fold | IC50 (A549): 1.82 µg/mL (≈ 3.47 µM) | IC90 (A549): 6.27 µg/mL (≈ 12 µM) | IC50 (Becap-37): 0.99 µg/mL (≈ 1.89 µM) | IC90 (Becap-37): 3.01 µg/mL (≈ 5.74 µM) | IC50 (CaEs-17): 0.9 µg/mL (≈ 1.72 µM) | IC90 (CaEs-17): 3.65 µg/mL (≈ 6.96 µM) | IC50 (Hep G2): 0.74 µg/mL (≈ 1.41 µM) | IC90 (Hep G2): 7.09 µg/mL (≈ 13.5 µM) | IC50 (MG-63): 0.36 µg/mL (≈ 0.686 µM) | IC90 (MG-63): 0.92 µg/mL (≈ 1.75 µM) | IC50 (PANC-1): 1.31 µg/mL (≈ 2.5 µM) | IC90 (PANC-1): 4.41 µg/mL (≈ 8.41 µM) | IC50 (PC-3): 1.35 µg/mL (≈ 2.57 µM) | IC90 (PC-3): 5.37 µg/mL (≈ 10.2 µM) | IC50 (RKO): 0.35 µg/mL (≈ 0.667 µM) | IC90 (RKO): 0.88 µg/mL (≈ 1.68 µM) | IC50 (SK-OV-3; SK-OV-3, 72 h): 1.35 µg/mL (≈ 2.57 µM) | IC90 (SK-OV-3; SK-OV-3, 72 h): 5.37 µg/mL (≈ 10.2 µM) | IC50 (U87-MG): 0.51 µg/mL (≈ 0.972 µM) | IC90 (U87-MG): 1.67 µg/mL (≈ 3.18 µM)

Reference: patent publication US9902736B2, “1-oxo/acylation-14-acylated oridonin derivative, preparation method therefor and application thereof” (HANGZHOU BENSHENG PHARMACEUTICAL CO., LTD., priority 2012, dated 2018)
